Data published in US20240308998A1, “PYRROLOPYRIDONE DERIVATIVES USEFUL IN THE TREATMENT OF CANCER” (Tay Therapeutics Limited, priority 2021, published 2024).
Structures can show the parent of a compound that is named as a salt.

Legend:
[1] = Intrinsic clearance in rat liver microsomes; type: in vitro ADME; settings: pH 7.4, NADPH, read-out: Rat Microsomal Stability T½
Protocol: A 50 mM stock solution (in DMSO) was prepared for the compound. From the stock solution, a working solution of 0.5 mM was prepared by diluting the compound in DMSO. This concentration of working solution was prepared considering a final concentration of 1 uM with 0.1% DMSO. The compound (1 uL of working solution) was spiked in PBS with pH 7.4 (22 uL) at a concentration of 1 uM. Subsequently, 110 uL of 10 mM NADPH was added (as a co-factor). The sample was incubated at 37° C. for 15 min. Following this, pre-warmed rat liver microsomes (27.5 uL; final protein conc. 0.5 mg/mL) were added. The samples were then incubated at 37° C. Aliquots of samples were withdrawn at 0, 5, 15, 30, 45 and 60 min. The reaction was stopped by using chilled acetonitrile containing internal standard. The samples were centrifuged and the supernatants analysed by LC-MS/MS. The percent compound remaining at each time point was calculated with respect to that of the 0 min sample. The data were then analysed to calculate half-life. Note that control samples were run without NADPH and blank samples were prepared using DMSO without the test Compound.

[2] = biological target: T1, BRD4 BD2 (Homo sapiens, UniProt O60885); assay: NanoBRET bromodomain assay, BRD4 BD2; type: cell-based; settings: for Fold selectivity BRD4 BD1/BD2: IC50 BD1/IC50 BD2; for IC50: NanoBRET, HEK293 cells transfected with NanoLuc-BRD4-BD2
T1 construct: HEK293 cells were transfected using NanoLuc-BRD4-BD1 or NanoLuc-BRD4-BD2 fusion vectors; host or cells: HEK293
In short: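 HEK293 cells transfected with NanoLuc-BRD4-BD2 fusion for 20-24 h, then treated with compound plus 1x tracer for 2 h at 37° C. Donor 450 nm / acceptor 610 nm emissions converted to background-corrected mBU; IC50 by nonlinear regression; selectivity as IC50 BD1/IC50 BD2.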

[3] = biological target: T2, BRD4 BD1 (Homo sapiens, UniProt O60885); assay: NanoBRET bromodomain assay, BRD4 BD1; type: cell-based; settings: HEK293 cells transfected with NanoLuc-BRD4-BD1
T2 construct: HEK293 cells were transfected using NanoLuc-BRD4-BD1 or NanoLuc-BRD4-BD2 fusion vectors; host or cells: HEK293
In short: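 Transfected HEK293 cells expressing NanoLuc-BRD4-BD1 were incubated with 1x tracer and serially diluted compound for 2 h at 37 °C, then given Nano-Glo substrate plus extracellular NanoLuc inhibitor. Donor 450 nm and acceptor 610 nm emissions were converted to background-corrected mBU, and IC50 was derived by nonlinear regression.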

[4] = Mouse plasma stability; type: in vitro ADME; settings: 10 μM in mouse plasma, 37° C.
Protocol: The stock solution of compound (10 or 50 mM) was prepared in DMSO. From the stock solution, a working solution of compound (500 uM) was prepared in DMSO (100%). To 735 μL of mouse plasma, 15 μL of working solution of compound was added—resulting in a final concentration of 10 μM (2% DMSO) for the compound. The sample was then incubated at 37° C. Aliquot was withdrawn at time-points—0, 15, 30, 60, 90 and 120 mins. The reaction was stopped by using chilled acetonitrile containing internal standard (IS). The samples were centrifuged and the supernatants analyzed using LC-MS/MS. The percent remaining of the compound at each time point was calculated with respect to the control sample (0 min time-point).

[5] = Balb/c mouse pharmacokinetics after oral (PO) dosing; type: in vivo; settings: male, plasma
Protocol: Compounds were formulated in 5% DMSO, 40% PEG-400, 55% Milli-Q water at a concentration of 0.5 mg/mL for 5 mg/kg and 3 mg/mL for 30 mg/kg PO dosing. […] Blood was sampled at various timepoints and plasma isolated. 10 μL of plasma with 5 μL of blank Balb/c mouse plasma were added to 200 μL of acetonitrile containing IS mixture. The samples were vortexed for 30 s. After centrifugation at 4 degree Celsius, 3900 rpm for 15 min, the supernatant was diluted 3 times with water. 20 μL of diluted supernatant was injected into the LC/MS/MS system for quantitative analysis and concentration of analyte determined by comparison with matrix matched standard curve. WinNonlin (Phoenix™, version 8.3) or other similar software was used for pharmacokinetic calculations.

Structure (SMILES) | half-life at 1 uM [1] [h] | Fold selectivity BRD4 BD1/BD2 [2] | IC50 [2] [µM] | IC50 [3] [µM] | Mouse Plasma Stability % remaining at 120 minutes [4] [%] | Cmax ([5]; 5 mg/kg, Casette) [ng/mL] | bioavailability ([5]; 5 mg/kg, Casette) [%] | Cmax ([5]; 30 mg/kg, Individual) [ng/mL] | bioavailability ([5]; 30 mg/kg, Individual) [%]
Cc1cc(-c2cc3c(-c4cc(=O)n(C)cc4Oc4c(C)cccc4C)cn(C)c(=O)c3[nH]2)cc(C)n1 [Example 17, 4-(5-(2,6-dimethylphenoxy)-1-methyl-2-oxo-1,2-dihydropyridin-4-yl)-2-(2,6-dimethylpyridin-4-yl)-6-methyl-1,6-dihydro-7H-pyrrolo[2,3-c] pyridin-7-one.TFA] | > 1 | xxx (Fold >200) | ≤ 0.05 | > 1 | 42 | – | – | – | –
Cc1cccc(C)c1Oc1cn(C)c(=O)cc1-c1cn(C)c(=O)c2[nH]c(-c3ccc(F)cc3F)cc12 [Example 47, 2-(2,4-difluorophenyl)-4-(5-(2,6-dimethylphenoxy)-1-methyl-2-oxo-1,2-dihydropyridin-4-yl)-6-methyl-1,6-dihydro-7H-pyrrolo[2,3-c] pyridin-7-one] | – | xxx (Fold >200) | ≤ 0.05 | > 1 | – | 718 | 100 | – | –
Cc1cccc(C)c1Oc1cn(C)c(=O)cc1-c1cn(C)c(=O)c2[nH]c(-c3cn(C(C)C)nc3C#N)cc12 [Example 49, 4-{4-[5-(2,6-dimethylphenoxy)-1-methyl-2-oxopyridin-4-yl]-6-methyl-7-oxo-1H-pyrrolo[2,3-c]pyridin-2-yl}-1-isopropylpyrazole-3-carbonitrile] | – | xx (Fold >50 and ≤200) | ≤ 0.05 | 0.05 to 0.5 | – | 19.3 | 7.81 | – | –
Cc1cc(-c2cc3c(-c4cc(=O)n(C5CC5)cc4Oc4c(C)cccc4C)cn(C)c(=O)c3[nH]2)cc(C)n1 [Example 59, 1-cyclopropyl-5-(2,6-dimethylphenoxy)-4-[2-(2,6-dimethylpyridin-4-yl)-6-methyl-7-oxo-1H-pyrrolo[2,3-c]pyridin-4-yl]pyridin-2-one] | – | xxx (Fold >200) | ≤ 0.05 | > 1 | – | – | – | 5460 | 100
Cc1cc(-c2cc3c(-c4cc(=O)n(C)cc4-c4ccccc4)cn(C)c(=O)c3[nH]2)n(C)n1 [Example 60, 2-(1,3-dimethyl-1H-pyrazol-5-yl)-6-methyl-4-(1-methyl-2-oxo-5-phenyl-1,2-dihydropyridin-4-yl)-1,6-dihydro-7H-pyrrolo[2,3-c] pyridin-7-one] | – | xxx (Fold >200) | ≤ 0.05 | > 1 | – | 631 | 59.9 | – | –
CC(C)n1cc(-c2cc3c(-c4cc(=O)n(C)cc4-c4ccccc4)cn(C)c(=O)c3[nH]2)cn1 [Example 61, 4-[2-(1-isopropylpyrazol-4-yl)-6-methyl-7-oxo-1H-pyrrolo[2,3-c]pyridin-4-yl]-1-methyl-5-phenylpyridin-2-one] | – | xxx (Fold >200) | ≤ 0.05 | > 1 | – | 622 | 51.2 | – | –
Cc1cc(-c2cc3c(-c4cc(=O)n(C)cc4-c4ccccc4)cn(C)c(=O)c3[nH]2)cc(C)n1 [Example 62, 4-[2-(2,6-dimethylpyridin-4-yl)-6-methyl-7-oxo-1H-pyrrolo[2,3-c]pyridin-4-yl]-1-methyl-5-phenylpyridin-2-one] | – | xxx (Fold >200) | ≤ 0.05 | 0.05 to 0.5 | – | 1290 | 88.7 | – | –
Cn1cc(-c2ccccc2)c(-c2cn(C)c(=O)c3[nH]c(-c4ccccc4)cc23)cc1=O [Example 63, 1-methyl-4-{6-methyl-7-oxo-2-phenyl-1H-pyrrolo[2,3-c]pyridin-4-yl}-5-phenylpyridin-2-one] | – | xxx (Fold >200) | ≤ 0.05 | > 1 | – | 1590 | 86.5 | – | –
Cc1cccc(C)c1Oc1cn(C)c(=O)cc1-c1cn(C)c(=O)c2[nH]c(-c3cn(C4COC4)nc3C)cc12 [Example 64, 4-(5-(2,6-dimethylphenoxy)-1-methyl-2-oxo-1,2-dihydropyridin-4-yl)-6-methyl-2-(3-methyl-1-(oxetan-3-yl)-1H-pyrazol-4-yl)-1,6-dihydro-7H-pyrrolo[2,3-c]pyridin-7-one] | – | xx (Fold >50 and ≤200) | ≤ 0.05 | 0.5 to 1 | – | – | – | 1010 | 12.5

The next lines start with the values.

half-life at 1 uM [1] [h] | Fold selectivity BRD4 BD1/BD2 [2] | IC50 [2] [µM] | IC50 [3] [µM] | Mouse Plasma Stability % remaining at 120 minutes [4] [%] | Cmax ([5]; 5 mg/kg, Casette) [ng/mL] | bioavailability ([5]; 5 mg/kg, Casette) [%] | Cmax ([5]; 30 mg/kg, Individual) [ng/mL] | bioavailability ([5]; 30 mg/kg, Individual) [%] | Structure (SMILES)
> 1 | xxx (Fold >200) | ≤ 0.05 | > 1 | 84 | – | – | – | – | Cc1cc(-c2cc3c(-c4cc(=O)n(C)cc4Oc4c(C)cccc4C)cn(C)c(=O)c3[nH]2)n(C)n1 [Example 7, 2-(1,3-dimethyl-1H-pyrazol-5-yl)-4-(5-(2,6-dimethylphenoxy)-1-methyl-2-oxo-1,2-dihydropyridin-4-yl)-6-methyl-1,6-dihydro-7H-pyrrolo[2,3-c] pyridin-7-one]
> 1 | xx (Fold >50 and ≤200) | ≤ 0.05 | 0.05 to 0.5 | 98 | – | – | – | – | Cc1cccc(C)c1Oc1cn(C)c(=O)cc1-c1cn(C)c(=O)c2[nH]c(-c3cnn(C(C)C)c3)cc12 [Example 11, 4-(5-(2,6-dimethylphenoxy)-1-methyl-2-oxo-1,2-dihydropyridin-4-yl)-2-(1-isopropyl-1H-pyrazol-4-yl)-6-methyl-1,6-dihydro-7H-pyrrolo[2,3-c] pyridin-7-one]
> 1 | xxx (Fold >200) | ≤ 0.05 | > 1 | 99 | – | – | – | – | Cc1cccc(C)c1Oc1cn(C)c(=O)cc1-c1cn(C)c(=O)c2[nH]c(-c3ccccc3F)cc12 [Example 14, 4-(5-(2,6-dimethylphenoxy)-1-methyl-2-oxo-1,2-dihydropyridin-4-yl)-2-(2-fluorophenyl)-6-methyl-1,6-dihydro-7H-pyrrolo[2,3-c] pyridin-7-one]
– | xxx (Fold >200) | ≤ 0.05 | > 1 | – | 293 | 73 | – | – | Cc1cccc(C)c1Oc1cn(C)c(=O)cc1-c1cn(C)c(=O)c2[nH]c(-c3cccc(F)c3F)cc12 [Example 50, 4-[2-(2,3-difluorophenyl)-6-methyl-7-oxo-1H-pyrrolo[2,3-c]pyridin-4-yl]-5-(2,6-dimethylphenoxy)-1-methylpyridin-2-one]
– | xx (Fold >50 and ≤200) | 0.05 to 0.2 | > 1 | – | 24.4 | 6.83 | – | – | Cc1cccc(C)c1Oc1cn(C)c(=O)cc1-c1cn(C)c(=O)c2[nH]c(-c3ccc(=O)n(C)c3)cc12 [Example 51, 5-(2,6-dimethylphenoxy)-1-methyl-4-[6-methyl-2-(1-methyl-6-oxopyridin-3-yl)-7-oxo-1H-pyrrolo[2,3-c]pyridin-4-yl]pyridin-2-one]
